Laboratory results reported in PMC4433340 (PLoS Neglected Tropical Diseases, 2015).

What was measured:
[1] = system: NF-κB p65 in T. cruzi-infected EA.hy926 cells; assay: Nuclear p65 localization by confocal microscopy; type: cell-based, human; details: 5 μM simvastatin or 20 μM benznidazole before T. cruzi 1 hour
Experimental: 2x10^4 EA.hy926 cells were seeded in Lab-Tek II Chamber Slides^TM for 12 hours. Cells were fixed in 3.7% formaldehyde–0.1 M phosphate buffer (pH 7.3) for 10 min. They were then washed with cytoskeletal buffer followed by permeabilization for 5 min with Triton-X100 0.5%. Cells were blocked with 3% bovine serum albumin for 1 hour. […] The samples were washed with PBS and incubated with anti-rabbit IgG conjugated with fluorescein (1:100) from Sigma-Aldrich for 1 hour. Finally, nuclei were stained with DAPI for 5 minutes and mounted in Dako fluorescence mounting media. The cells were photographed and ten pictures per well were obtained; images were analyzed using ImageJ software (ImageJ 1.47v).

[2] = system: 15-epi-lipoxin A4 production by EA.hy926 cells; assay: 15-epi-lipoxin A4 determination by ELISA in culture supernatants; type: cell-based, human; details: ELISA (Fig 7A); for 15-epi-LXA4 production in T. cruzi-infected endothelial cells: EA.hy926 infected 16 hours, drug added afterwards
Experimental: (§1) 8x10^5 EA.hy926 cells/well were cultured in 6-well plates (IMDM 10% SFB). […] 15-epi-LXA4 determination was performed by:
(§2) • ELISA assay: the supernatant from the cell cultures was assayed using a 15-epi-LXA4 BioAssay ELISA Kit (USBiological, USA) following manufacturer’s instructions. • AxION DSA—TOF MS determination: To determine 15-epi-lipoxin A4 levels in EAhy926 cell culture supernatants, an AxION Direct Sample Analysis (DSA) that was integrated with an AxION 2 time-of-flight (TOF) mass spectrometer (PerkinElmer, Shelton, CT, USA) was employed. For extraction, all of the samples were loaded onto a solid phase extraction and eluted with 1 mL chloroform three times successively. Then, the samples were transferred into a clean tube, and the chloroform in the samples was evaporated in a water bath. Finally, the samples were resuspended in 100 μL ethanol, and 10 μL were pipetted onto a stainless mesh. For the calibration curve, 15-epi-lipoxin A4 (cat#90415, Cayman Chemical, USA) was diluted in PBS to achieve different final concentrations (see S1 Fig). From each tube, 10 μL was pipetted onto a stainless mesh, and DSA—TOF determination was performed. The AxION DSA conditions were as follows: 5 μA corona current, 250°C heater temperature, 80 psi auxiliary gas (N2) pressure, 4 L/min drying gas (N2) flow, and 25°C drying gas (N2) temperature. […] Mass spectra were acquired with a mass range of 100–1000 m/z and an acquisition rate of 2 spectra/sec. To maintain mass accuracy, […] lock mass ions were used (m/z 119.0400, m/z 556.0000 and m/z 805.9900). All of the samples were analyzed for only 10 sec. The standards used were 15-epi-lipoxin A4 (cat#90415, Cayman Chemical,) and 5(S),6(R)-Lipoxin A4 methyl ester (cat#10033, Cayman Chemical) as an internal standard. These were confirmed in seconds by accurate mass and isotopic distribution of parent and fragment ions using DSA/TOF and AxION software, and compound identification was performed using the standards. All of the samples were analyzed in triplicate.

[3] = system: NF-κB pathway (p-IKK, p-IκB) in T. cruzi-infected EA.hy926 cells; assay: IKK and IκB phosphorylation by Western blot; type: cell-based, human; details: 5 μM simvastatin or 20 μM benznidazole, T. cruzi 1 hour
Experimental: (§3) 5x10^5 endothelial cells were rinsed once with PBS and scraped. Proteins were extracted into 100 μL RIPA buffer plus a protease and phosphatase inhibitor cocktail (Radio-Immunoprecipitation Assay; Millipore Corporation, USA) at 4°C. Total protein was quantified with the Lowry assay. Samples in loading buffer (10% SDS, 50% glycerol, 0.5 M Tris, 0.1% bromophenol blue, and 1 M dithiothreitol, pH 6.8) were electrophoretically separated by 10% SDS-PAGE and transferred to a nitrocellulose membrane. Nitrocellulose membranes were incubated with blocking solution (5% w/v nonfat dry milk, 0.1% Tween-20 in Tris-buffered saline) at room temperature for 1 hour. Then, the membranes were incubated at 4°C overnight with 1 mL solution of primary antibodies against E-selectin (1:1000) and α-Tubulin (1:10.000) from Sigma-Aldrich, ICAM-1 (1:2000) and VCAM-1 (1:1000) from Abcam, 7 ml solution of p-IKK (1:1000), IKK (1:1000), p-IκB (1:1000) and IκB (1:1000) from Cell signaling (Cell Signaling Technologies, USA). Bound antibodies were detected with horseradish peroxidase-conjugated secondary antibodies and visualized by Lumminata forte (Millipore). The nitrocellulose was stripped between reprobes using Mild stripping (Millipore) for 10 minutes. Developed films were scanned, and band densitometry was analyzed using ImageJ software (ImageJ 1.47v).

[4] = system: total E-selectin, ICAM-1 and VCAM-1 protein in T. cruzi-infected endothelial cells; assay: Total ECAM protein by Western blot; type: cell-based, human; details: 5 μM simvastatin or 20 μM benznidazole for 24 hours before 16 hours infection
Experimental: as §3

T. cruzi epimastigotes = details: at concentrations in the millimolar range; cited from earlier work
[5] = system: 15-epi-lipoxin A4 production by T. cruzi-infected EA.hy926 cells; assay: 15-epi-lipoxin A4 quantification by DSA-TOF MS in culture supernatants; type: cell-based, human; details: 5 μM simvastatin
Experimental: as §1, §2

| SMILES | Nuclear p65 localization [1] | 15-epi-LXA4 production in T. cruzi-infected endothelial cells [2] | Response of the IKK-IκB system (p-IKK, p-IκB) [3] | Total cell adhesion molecule protein amount [4] | Epimastigote proliferation (T. cruzi epimastigotes) | 15-epi-lipoxin A4 concentration (Mean ± SD) ([5]; 3 hours) | 15-epi-lipoxin A4 concentration (Mean ± SD) ([5]; 6 hours) | 15-epi-lipoxin A4 concentration (Mean ± SD) ([5]; 12 hours) | 15-epi-lipoxin A4 concentration (Mean ± SD) ([5]; 24 hours) | 15-epi-LXA4 levels with drug alone ([2]; 5 μM simvastatin, EA.hy926 without T. cruzi) |
| --- | --- | --- | --- | --- | --- | --- | --- | --- | --- | --- |
| O=C(Cn1ccnc1[N+](=O)[O-])NCc1ccccc1 [Benznidazole] | decreased nuclear p65 localization | did not induce | significantly decreased the response of the Ikk-IkB system | decreased cell adhesion molecule amount |  |  |  |  |  |  |
| CCC(C)(C)C(=O)O[C@H]1C[C@@H](C)C=C2C=C[C@H](C)[C@H](CC[C@@H]3C[C@@H](O)CC(=O)O3)[C@H]21 [Simvastatin] |  | induced 15-epi-LXA4 | significantly decreased the response of the Ikk-IkB system | decreased cell adhesion molecule amount | decreased epimastigote proliferation | 1.58 ± 0.21 ng/mL | 3.58 ± 1.22 ng/mL | 37.28 ± 11.23 ng/mL | 326 ± 34.25 ng/mL | rose slightly |
